Among the data in ChEMBL document CHEMBL1135352, “8-Anilinoimidazo[4,5-g]quinoline-7-carbonitriles as Src kinase inhibitors” (Bioorg Med Chem Lett, 2002) are IC50 values, retold here.

Experiment [1] has as its target Proto-oncogene tyrosine-protein kinase Src (Rattus norvegicus, UniProt Q9WUD9). The experiment can be described thus: Inhibition of src kinase activity in Src transformed rat fibroblasts. The experiment is classed as functional.
For experiment [2], the target named is Receptor tyrosine-protein kinase erbB-2 (Homo sapiens, UniProt P04626). As to the kind of experiment: Inhibition of ERBB2 receptor kinase.
For experiment [3], the target named is Epidermal growth factor receptor (Homo sapiens, UniProt P00533). As to the kind of experiment: Inhibition of Epidermal growth factor receptor kinase.
A short description of experiment [4]: Inhibition of Dual specificity mitogen-activated protein kinase kinase MEK.
Experiment [5] has as its target Proto-oncogene tyrosine-protein kinase Src (Homo sapiens, UniProt P12931). As to the kind of experiment: Inhibition of Src protein tyrosine kinase activity.

Where only a bound is given, the exact number is not on record here.

Chain of Proto-oncogene tyrosine-protein kinase Src (Rattus norvegicus, UniProt Q9WUD9) (Q9WUD9 2-536 limits assumed): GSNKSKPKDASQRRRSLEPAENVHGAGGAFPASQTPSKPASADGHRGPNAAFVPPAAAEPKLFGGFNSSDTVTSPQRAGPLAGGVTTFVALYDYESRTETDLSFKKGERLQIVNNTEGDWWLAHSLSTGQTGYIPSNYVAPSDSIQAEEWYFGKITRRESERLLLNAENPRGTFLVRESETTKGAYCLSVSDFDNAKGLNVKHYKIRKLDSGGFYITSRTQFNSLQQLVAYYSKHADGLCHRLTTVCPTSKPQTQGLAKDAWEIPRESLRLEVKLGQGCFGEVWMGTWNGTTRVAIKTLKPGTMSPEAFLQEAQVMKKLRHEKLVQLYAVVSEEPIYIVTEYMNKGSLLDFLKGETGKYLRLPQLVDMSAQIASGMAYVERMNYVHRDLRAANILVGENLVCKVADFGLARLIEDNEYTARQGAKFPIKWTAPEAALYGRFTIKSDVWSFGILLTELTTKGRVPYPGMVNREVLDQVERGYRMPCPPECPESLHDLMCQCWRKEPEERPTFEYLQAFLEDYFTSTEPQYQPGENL
Chain of Epidermal growth factor receptor (P00533 whole entry): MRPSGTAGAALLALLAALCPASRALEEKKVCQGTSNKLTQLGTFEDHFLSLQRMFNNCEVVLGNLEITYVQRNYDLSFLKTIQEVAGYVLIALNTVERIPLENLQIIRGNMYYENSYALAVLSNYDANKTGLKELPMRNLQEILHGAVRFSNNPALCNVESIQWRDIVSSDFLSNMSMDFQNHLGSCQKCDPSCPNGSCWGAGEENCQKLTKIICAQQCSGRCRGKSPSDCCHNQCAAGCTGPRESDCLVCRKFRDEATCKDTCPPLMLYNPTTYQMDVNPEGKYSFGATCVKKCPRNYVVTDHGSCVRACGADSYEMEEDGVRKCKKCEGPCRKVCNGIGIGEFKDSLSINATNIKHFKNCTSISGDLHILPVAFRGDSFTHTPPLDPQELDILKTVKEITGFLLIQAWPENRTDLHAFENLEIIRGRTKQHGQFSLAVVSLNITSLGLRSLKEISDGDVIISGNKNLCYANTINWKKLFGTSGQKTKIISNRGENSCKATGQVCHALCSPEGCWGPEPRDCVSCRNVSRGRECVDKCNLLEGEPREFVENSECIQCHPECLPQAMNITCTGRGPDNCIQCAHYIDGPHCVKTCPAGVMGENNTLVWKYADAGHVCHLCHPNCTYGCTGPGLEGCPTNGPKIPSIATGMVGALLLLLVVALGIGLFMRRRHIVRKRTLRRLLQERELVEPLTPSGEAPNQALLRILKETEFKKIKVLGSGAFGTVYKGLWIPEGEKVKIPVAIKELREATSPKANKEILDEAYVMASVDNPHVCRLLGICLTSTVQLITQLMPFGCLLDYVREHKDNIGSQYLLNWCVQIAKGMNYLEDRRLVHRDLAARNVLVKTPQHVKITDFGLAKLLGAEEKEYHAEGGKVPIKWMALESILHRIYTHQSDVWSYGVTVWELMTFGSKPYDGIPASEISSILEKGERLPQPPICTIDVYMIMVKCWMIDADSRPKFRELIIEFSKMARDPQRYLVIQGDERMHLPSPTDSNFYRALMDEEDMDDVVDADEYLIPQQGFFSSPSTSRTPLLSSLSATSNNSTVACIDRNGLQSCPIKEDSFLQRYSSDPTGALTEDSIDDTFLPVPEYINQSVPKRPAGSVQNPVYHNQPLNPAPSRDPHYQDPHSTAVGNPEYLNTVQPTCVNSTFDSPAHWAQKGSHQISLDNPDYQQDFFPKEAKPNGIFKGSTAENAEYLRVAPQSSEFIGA
Chain of Receptor tyrosine-protein kinase erbB-2 (P04626 whole entry): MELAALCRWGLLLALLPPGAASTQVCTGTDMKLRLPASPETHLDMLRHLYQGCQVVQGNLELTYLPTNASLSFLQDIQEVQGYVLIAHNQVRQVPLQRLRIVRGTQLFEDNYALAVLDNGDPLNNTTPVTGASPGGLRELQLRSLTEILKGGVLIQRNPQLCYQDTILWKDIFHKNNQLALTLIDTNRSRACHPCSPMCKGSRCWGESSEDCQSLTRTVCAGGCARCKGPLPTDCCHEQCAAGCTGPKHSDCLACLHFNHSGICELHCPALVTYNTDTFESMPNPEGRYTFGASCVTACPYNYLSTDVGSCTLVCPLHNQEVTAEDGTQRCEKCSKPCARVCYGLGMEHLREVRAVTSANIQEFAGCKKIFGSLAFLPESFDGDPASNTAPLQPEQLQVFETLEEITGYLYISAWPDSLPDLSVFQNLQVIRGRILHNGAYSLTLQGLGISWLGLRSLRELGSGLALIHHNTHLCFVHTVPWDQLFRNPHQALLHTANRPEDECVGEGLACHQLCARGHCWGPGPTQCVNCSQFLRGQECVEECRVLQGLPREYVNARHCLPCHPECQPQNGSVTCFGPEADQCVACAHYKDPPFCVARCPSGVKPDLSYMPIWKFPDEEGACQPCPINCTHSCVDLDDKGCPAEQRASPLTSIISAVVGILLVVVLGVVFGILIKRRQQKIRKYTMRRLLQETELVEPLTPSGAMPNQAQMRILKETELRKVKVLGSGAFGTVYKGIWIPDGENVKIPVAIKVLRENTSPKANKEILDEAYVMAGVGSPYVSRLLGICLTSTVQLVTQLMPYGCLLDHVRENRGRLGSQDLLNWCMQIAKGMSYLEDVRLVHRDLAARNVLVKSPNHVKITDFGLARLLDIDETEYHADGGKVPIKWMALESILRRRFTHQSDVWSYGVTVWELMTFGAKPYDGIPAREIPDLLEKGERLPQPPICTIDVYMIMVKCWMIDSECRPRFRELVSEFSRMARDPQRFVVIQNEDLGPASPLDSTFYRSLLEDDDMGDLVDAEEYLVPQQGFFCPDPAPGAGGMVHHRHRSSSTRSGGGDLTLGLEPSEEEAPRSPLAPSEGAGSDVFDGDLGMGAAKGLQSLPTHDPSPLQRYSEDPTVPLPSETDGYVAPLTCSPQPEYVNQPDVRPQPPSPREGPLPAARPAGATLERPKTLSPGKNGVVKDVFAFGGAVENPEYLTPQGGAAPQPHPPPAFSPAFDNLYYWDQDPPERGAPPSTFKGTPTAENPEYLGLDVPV
Chain of Proto-oncogene tyrosine-protein kinase Src (Homo sapiens, UniProt P12931) (P12931 2-536 limits assumed): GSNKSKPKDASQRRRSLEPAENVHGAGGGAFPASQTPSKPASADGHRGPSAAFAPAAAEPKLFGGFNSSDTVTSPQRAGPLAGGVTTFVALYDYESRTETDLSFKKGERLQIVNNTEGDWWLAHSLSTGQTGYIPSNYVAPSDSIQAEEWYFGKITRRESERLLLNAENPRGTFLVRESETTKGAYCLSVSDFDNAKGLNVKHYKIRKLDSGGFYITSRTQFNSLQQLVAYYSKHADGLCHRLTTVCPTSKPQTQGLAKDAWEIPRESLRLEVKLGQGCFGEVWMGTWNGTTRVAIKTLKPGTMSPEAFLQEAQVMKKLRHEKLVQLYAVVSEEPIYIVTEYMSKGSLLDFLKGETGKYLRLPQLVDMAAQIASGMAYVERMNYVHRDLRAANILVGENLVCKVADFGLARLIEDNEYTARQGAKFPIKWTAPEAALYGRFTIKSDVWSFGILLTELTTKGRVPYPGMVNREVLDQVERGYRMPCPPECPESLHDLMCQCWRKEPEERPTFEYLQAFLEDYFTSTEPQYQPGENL

For `COc1cc(Nc2c(C#N)cnc3cc4[nH]cnc4cc23)c(Br)cc1Cl`, the IC50 in experiment [1] is 2.8 µM; in experiment [2], over 1000 nM; in experiment [3], over 1000 nM; in experiment [4], over 1000 nM; in experiment [5], 16 nM.
Consider `COc1ccc(Cl)c(Nc2c(C#N)cnc3cc4c(cc23)ncn4CCN2CCOCC2)c1`, for which the IC50 in experiment [1] is 1.2 µM; in experiment [2], over 1000 nM; in experiment [3] it was over 1000 nM; in experiment [4] it was over 1000 nM; in experiment [5] it was 43 nM.
As to `COc1cc(Nc2c(C#N)cnc3cc4c(cc23)ncn4CCN2CCOCC2)cc(OC)c1OC`, the concentration for half-maximal inhibition (IC50) in experiment [1] was over 10 µM; in experiment [2], over 1000 nM; in experiment [3] it was over 1000 nM; in experiment [4], over 1000 nM; in experiment [5] it was 200 nM.
In the case of `N#Cc1cnc2cc3[nH]cnc3cc2c1Nc1ccc(Cl)cc1Br`, the IC50 in experiment [1] was 10.1 µM; in experiment [2] it was over 1000 nM; in experiment [3] it was over 1000 nM; in experiment [4] it was over 1000 nM; in experiment [5] it was 75 nM.
Regarding `COc1cc(Nc2c(C#N)cnc3cc4c(cc23)ncn4CCN2CCOCC2)c(Br)cc1Cl`, the IC50 in experiment [1] is 0.67 µM; in experiment [2] it was over 1000 nM; in experiment [3] it was over 1000 nM; in experiment [4], over 1000 nM; in experiment [5] it was 9 nM.
For the compound `COc1cc(Nc2c(C#N)cnc3cc4c(cc23)ncn4CCN2CCOCC2)c(C)cc1Cl`, the IC50 was 3.9 µM in experiment [1]; over 1000 nM in experiment [2]; over 1000 nM in experiment [3]; over 1000 nM in experiment [4]; 29 nM in experiment [5].
In the case of `COc1cc(Nc2c(C#N)cnc3cc4nc(NCCN5CCOCC5)[nH]c4cc23)cc(OC)c1OC`, the values for the IC50 in experiment [1], in experiment [2] and in experiment [5] were over 10 µM, over 1000 nM and 180 nM, respectively.
Consider `COc1ccc(C)c(Nc2c(C#N)cnc3cc4[nH]c(NCCN5CCOCC5)nc4cc23)c1`, for which the IC50 was over 10 µM in experiment [1]; over 1000 nM in experiment [2]; over 1000 nM in experiment [3]; over 1000 nM in experiment [4]; 67 nM in experiment [5].
As for `COc1cc(Nc2c(C#N)cnc3cc4[nH]c(CN5CCOCC5)nc4cc23)cc(OC)c1OC`, the IC50 was over 10 µM in experiment [1]; over 1000 nM in experiment [2]; over 1000 nM in experiment [3]; over 1000 nM in experiment [4]; 620 nM in experiment [5].
For the compound `COc1ccc(C)c(Nc2c(C#N)cnc3cc4c(cc23)ncn4CCN2CCOCC2)c1`, the IC50 in experiment [1] was 3.3 µM; in experiment [2], over 1000 nM; in experiment [3], over 1000 nM; in experiment [4], over 1000 nM; in experiment [5] it was 120 nM.
`COc1ccc(Cl)c(Nc2c(C#N)cnc3cc4[nH]cnc4cc23)c1`: the IC50 was 10.5 µM in experiment [1]; over 1000 nM in experiment [2]; over 1000 nM in experiment [3]; over 1000 nM in experiment [4]; 30 nM in experiment [5].
Regarding `COc1cc(Nc2c(C#N)cnc3cc4[nH]cnc4cc23)cc(OC)c1OC`, the IC50 in experiment [1] was over 10 µM; in experiment [2] it was over 1000 nM; in experiment [3] it was over 1000 nM; in experiment [4], over 1000 nM; in experiment [5], 330 nM.
